Measurements taken from the supplement of paper PMC8671470.

Assays:
Details in all cases: 72 h
[1] = system: BV-173; assay: cell viability (% survival relative to DMSO control, bortezomib = 0%); higher = less cytotoxic
Method in brief: (§1)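 Percent survival is reported as the mean of duplicate wells. Cells from 10 AML and 5 CML lines were plated in 384-well plates containing compounds at 1, 10, 100, 1000 or 10000 nM and kept for 72 h at 37 °C in 5% CO2. Readout used CellTiter-Glo luminescence, scaled so that vehicle equals 100% and a 10 µM positive control equals 0%.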

[2] = system: LAMA-84; assay: as above
Method in brief: as §1

[3] = system: MV4-11; assay: as above
Method in brief: as §1

[4] = system: Mono-Mac-6; assay: as above
Method in brief: as §1

[5] = system: ML-2; assay: as above
Method in brief: as §1

[6] = system: KCL-22; assay: as above
Method in brief: as §1

[7] = system: NOMO-1; assay: as above
Method in brief: as §1

[8] = system: KU-812; assay: as above
Method in brief: as §1

[9] = system: THP-1; assay: as above
Method in brief: as §1

[10] = system: K-562; assay: as above
Method in brief: as §1

[11] = system: MOLM-13; assay: as above
Method in brief: as §1

[12] = system: KG-1; assay: as above
Method in brief: as §1

[13] = system: HEL; assay: as above
Method in brief: as §1

[14] = system: HL-60; assay: as above
Method in brief: as §1

[15] = system: SHI-1; assay: as above
Method in brief: as §1

[16] = system: BV-173
Method in brief: (§2)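 Fifteen myeloid leukaemia cell lines were seeded in RPMI 1640 at densities titrated to the linear growth range and placed in 384-well plates with acoustically pre-printed compounds at five tenfold doses from 1 to 10,000 nM, in duplicate. After 72 h at 37 °C with 5% CO2, luminescent ATP viability was normalised to vehicle and to a positive control at 10 µM, and curves were fitted with a four-parameter log-logistic model. The IC50 was obtained from these fits.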

[17] = system: LAMA-84
Method in brief: as §2

[18] = system: MV4-11
Method in brief: as §2

[19] = system: Mono-Mac-6
Method in brief: as §2

[20] = system: ML-2
Method in brief: as §2

[21] = system: KCL-22
Method in brief: as §2

[22] = system: NOMO-1
Method in brief: as §2

[23] = system: KU-812
Method in brief: as §2

[24] = system: THP-1
Method in brief: as §2

[25] = system: K-562
Method in brief: as §2

[26] = system: MOLM-13
Method in brief: as §2

[27] = system: KG-1
Method in brief: as §2

[28] = system: HEL
Method in brief: as §2

[29] = system: HL-60
Method in brief: as §2

[30] = system: SHI-1
Method in brief: as §2

O[C@H]1[C@H](O)[C@@H](O)CN2CC[C@H](O)[C@H]12 [Castanospermine]
cell viability [%]
Details | 1 nM | 10 nM | 100 nM | 1000 nM | 10000 nM
[1] | 123 | 105 | 95.9 | 82.4 | 88.4
[2] | 93 | 97.5 | 103 | 95.8 | 101
[3] | 102 | 106 | 97 | 95.5 | 107
[4] | 100 | 97.3 | 105 | 95.1 | 97.6
[5] | 115 | 107 | 103 | 96 | 94.1
[6] | 99 | 98 | 112 | 125 | 94.9
[7] | 105 | 111 | 105 | 105 | 86.7
[8] | 96.7 | 93.5 | 105 | 100 | 94.6
[9] | 91.9 | 105 | 101 | 96.9 | 98.8
[10] | 95.1 | 107 | 96.5 | 92.2 | 106
[11] | 79.9 | 90.7 | 108 | 123 | 117
[12] | 120 | 98.4 | 116 | 99.4 | 104
[13] | 113 | 109 | 105 | 126 | 112
[14] | 94.2 | 90.7 | 114 | 132 | 143
[15] | 106 | 98 | 108 | 125 | 112

Details | IC50 (cell viability) [µM]
[16] | > 10
[17] | > 10
[18] | > 10
[19] | > 10
[20] | > 10
[21] | > 10
[22] | > 10
[23] | > 10
[24] | > 10
[25] | > 10
[26] | > 10
[27] | > 10
[28] | > 10
[29] | > 10
[30] | > 10
